The test has as its target T1, ERR1 (also known as ERR-α or ERR-1) (Homo sapiens, UniProt P11474).
T1 construct: the ^6His-tagged-ERR1 LBD
T1 sequence (P11474 193-421 limits assumed): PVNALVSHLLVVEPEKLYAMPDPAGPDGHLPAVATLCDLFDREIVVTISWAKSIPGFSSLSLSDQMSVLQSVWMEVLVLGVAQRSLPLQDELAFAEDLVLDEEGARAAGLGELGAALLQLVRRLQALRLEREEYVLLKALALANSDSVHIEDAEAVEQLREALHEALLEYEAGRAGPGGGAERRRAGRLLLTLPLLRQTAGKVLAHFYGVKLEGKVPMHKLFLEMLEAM
The test is described as follows: TR-FRET assay: disruption of co-activator peptide binding to ERR1 LBD. As to conditions: 6His-tagged ERR1 LBD 6 nM, GST-SRC-2 peptide 6 nM, 25° C., 4-18 hours; average of 3 independent experiments. In kind it is biochemical. The method, boiled down: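 The 6His-ERR1 LBD and a GST-hSRC2 co-activator peptide were detected by α-GST Eu cryptate and α-6His-XL665 TR-FRET. Buffer was 25 mM Tris pH 8, 2.5 mM Hepes, 20 mM KCl, 1 mM DTT, 0.05 mg/mL BSA, equilibrated 4-18 h at 25° C. Dose-response curves were fitted hyperbolically and averaged over 3 independent experiments.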
Background: In TR-FRET formats the signal depends on donor and acceptor labels being close together.

The values that follow come from patent US8580832B2, “Substituted phenoxy aminothiazolones as estrogen related receptor-α modulators” (Janssen Pharmaceutica N.V., priority 2007, dated 2013).

For `COc1cc(/C=C2\SC(N3CCN(C)C(=O)C3)=NC2=O)ccc1Oc1ccc(C#N)cc1C(F)(F)F` [Example 94, 4-{2-Methoxy-4-[2-(4-methyl-3-oxo-piperazin-1-yl)-4-oxo-4H-thiazol-5-ylidenemethyl]-phenoxy}-3-trifluoromethyl-benzonitrile], the response was half-maximal at 8 nM (EC50).
As to `COc1cc(/C=C2\SC(NCCc3cccnc3)=NC2=O)ccc1Oc1ccc(C#N)cc1C(F)(F)F` [Example 29, 4-{2-Methoxy-4-[4-oxo-2-(2-pyridin-3-yl-ethylamino)-4H-thiazol-5-ylidenemethyl]-phenoxy}-3-trifluoromethyl-benzonitrile], the EC50 (as a rule, the midpoint of the concentration-response curve) is 12 nM.
On to `COc1cc(/C=C2\SC(N3CCCC(O)C3)=NC2=O)ccc1Oc1ccc(C(N)=O)cc1C(F)(F)F` (stereo not shown) [Example 114, 4-{4-[2-(3-Hydroxy-piperidin-1-yl)-4-oxo-4H-thiazol-5-ylidenemethyl]-2-methoxy-phenoxy}-3-trifluoromethyl-benzamide], for which the EC50 came to 300 nM. Compared with the last compound, the EC50 is about 25-fold higher.
As to `N#Cc1ccc(Oc2ccc(/C=C3\SC(NCCn4cncn4)=NC3=O)cc2F)c(C(F)(F)F)c1` [Example 98, 4-{2-Fluoro-4-[4-oxo-2-(2-[1,2,4]triazol-1-yl-ethylamino)-4H-thiazol-5-ylidenemethyl]-phenoxy}-3-trifluoromethyl-benzonitrile], the EC50 came to 17 nM.
Under `COC(=O)c1ccc(Oc2ccc(/C=C3\SC(N4CC(C(=O)O)C4)=NC3=O)cc2OC)c(C(F)(F)F)c1` [Example 52, 1-{5-[3-Methoxy-4-(4-methoxycarbonyl-2-trifluoromethyl-phenoxy)-benzylidene]-4-oxo-4,5-dihydro-thiazol-2-yl}-azetidine-3-carboxylic acid] stands 2 nM; under `COc1cc(/C=C2\SC(NCCn3ccnc3)=NC2=O)ccc1Oc1ccc(C#N)cc1C(F)(F)F` [Example 70, 4-{4-[2-(2-Imidazol-1-yl-ethylamino)-4-oxo-4H-thiazol-5-ylidenemethyl]-2-methoxy-phenoxy}-3-trifluoromethyl-benzonitrile], 24 nM; under `CNC1=NC(=O)/C(=C/c2ccc(Oc3ccc(C#N)cc3C(F)(F)F)c(OC)c2)S1` [Example 77, 4-[2-Methoxy-4-(2-methylamino-4-oxo-4H-thiazol-5-ylidenemethyl)-phenoxy]-3-trifluoromethyl-benzonitrile], 16 nM.
To `CN(C)CCCNC1=NC(=O)/C(=C/c2ccc(Oc3ccc(C#N)cc3C(F)(F)F)c(F)c2)S1` [Example 48, 4-{4-[2-(3-Dimethylamino-propylamino)-4-oxo-4H-thiazol-5-ylidenemethyl]-2-fluoro-phenoxy}-3-trifluoromethyl-benzonitrile] belongs 9 nM.
Compound `COc1cc(/C=C2\SC(N3CC[C@@H](F)C3)=NC2=O)ccc1Oc1ccc(C#N)cc1C(F)(F)F` [Example 90, 4-{4-[2-(3-Fluoro-pyrrolidin-1-yl)-4-oxo-4H-thiazol-5-ylidenemethyl]-2-methoxy-phenoxy}-3-trifluoromethyl-benzonitrile] gave an EC50 of 13 nM.
In the case of `COc1cc(/C=C2\SC(N3CCNC(=O)C3)=NC2=O)ccc1Oc1ccc(C#N)cc1C(F)(F)F` [Compound 21, 4-{2-Methoxy-4-[4-oxo-2-(3-oxo-piperazin-1-yl)-4H-thiazol-5-ylidenemethyl]-phenoxy}-3-trifluoromethyl-benzonitrile], a half-maximal response (EC50) required 9 nM.
As to `COc1cc(/C=C2\SC(NCCN3CCCCC3)=NC2=O)ccc1Oc1ccc(C#N)cc1C(F)(F)F` [Compound 25, 4-{2-Methoxy-4-[4-oxo-2-(2-piperidin-1-yl-ethylamino)-4H-thiazol-5-ylidenemethyl]-phenoxy}-3-trifluoromethyl-benzonitrile], a half-maximal effect (EC50) was put at 18 nM.
`COC(=O)CC1CCN(C2=NC(=O)/C(=C/c3ccc(Oc4ccc(C#N)cc4C(F)(F)F)c(OC)c3)S2)CC1` [Example 83, (1-{5-[4-(4-Cyano-2-trifluoromethyl-phenoxy)-3-methoxy-benzylidene]-4-oxo-4,5-dihydro-thiazol-2-yl}-piperidin-4-yl)-acetic acid methyl ester]: the response was half-maximal at 26 nM (EC50).
The compound `N#Cc1ccc(Oc2ccc(/C=C3\SC(NCc4nnn[nH]4)=NC3=O)cc2F)c(C(F)(F)F)c1` [Example 108, 4-(2-Fluoro-4-{4-oxo-2-[(1H-tetrazol-5-ylmethyl)-amino]-4H-thiazol-5-ylidenemethyl}-phenoxy)-3-trifluoromethyl-benzonitrile] had an EC50 of 10 nM. This EC50 is about 2.6-fold lower than that of the compound before.
Take `N#Cc1ccc(Oc2ccc(/C=C3\SC(N)=NC3=O)cc2Cl)c(C(F)(F)F)c1` [Compound 3, 4-[2-Chloro-4-(2-imino-4-oxo-thiazolidin-5-ylidenemethyl)-phenoxy]-3-trifluoromethyl-benzonitrile]: the EC50 turned out to be 87 nM. This EC50 lies about 8.7-fold higher than the previous one.
The compound `COc1cc(/C=C2\SC(NCCC3CCOCC3)=NC2=O)ccc1Oc1ccc(C#N)cc1C(F)(F)F` [Example 109, 4-(2-Methoxy-4-{4-oxo-2-[2-(tetrahydro-pyran-4-yl)-ethylamino]-4H-thiazol-5-ylidenemethyl}-phenoxy)-3-trifluoromethyl-benzonitrile] showed an EC50 of 5 nM.
Under `COc1cc(/C=C2\SC(N(C)CCN(C)C)=NC2=O)ccc1Oc1ccc(C#N)cc1C(F)(F)F` [Compound 11, 4-(4-{2-[(2-Dimethylamino-ethyl)-methyl-amino]-4-oxo-4H-thiazol-5-ylidenemethyl}-2-methoxy-phenoxy)-3-trifluoromethyl-benzonitrile] stands 19 nM.
Regarding `COc1cc(/C=C2\SC(NCc3ccccn3)=NC2=O)ccc1Oc1ccc(C#N)cc1C(F)(F)F` [Compound 17, 4-(2-Methoxy-4-{4-oxo-2-[(pyridin-2-ylmethyl)-amino]-4H-thiazol-5-ylidenemethyl}-phenoxy)-3-trifluoromethyl-benzonitrile], the EC50 came out at 29 nM.
For the compound `CCOc1cc(/C=C2\SC(N3CCNC(=O)C3)=NC2=O)ccc1Oc1ccc(C#N)cc1C(F)(F)F` [Example 57, 4-{2-Ethoxy-4-[4-oxo-2-(3-oxo-piperazin-1-yl)-4H-thiazol-5-ylidenemethyl]-phenoxy}-3-trifluoromethyl-benzonitrile], the EC50 turned out to be 39 nM.
Compound `O=C1N=C(NCCCN2CCCC2=O)S/C1=C\c1ccc(Oc2ccc(Cl)cc2C(F)(F)F)c(F)c1` [Example 67, 5-[4-(4-Chloro-2-trifluoromethyl-phenoxy)-3-fluoro-benzylidene]-2-[3-(2-oxo-pyrrolidin-1-yl)-propylamino]-thiazol-4-one] registered an EC50 of 3 nM.
Compound `COc1cc(/C=C2\SC(NCCn3cccn3)=NC2=O)ccc1Oc1ccc(C#N)cc1C(F)(F)F` [Example 30, 4-{2-Methoxy-4-[4-oxo-2-(2-pyrazol-1-yl-ethylamino)-4H-thiazol-5-ylidenemethyl]-phenoxy}-3-trifluoromethyl-benzonitrile] registered an EC50 of 47 nM.
As to `COc1cc(/C=C2\SC(NCCN3CCCC3)=NC2=O)ccc1Oc1ccc(C#N)cc1C(F)(F)F` [Compound 20, 4-{2-Methoxy-4-[4-oxo-2-(2-pyrrolidin-1-yl-ethylamino)-4H-thiazol-5-ylidenemethyl]-phenoxy}-3-trifluoromethyl-benzonitrile], the EC50 is 32 nM.
`CC(C)c1ccccc1Oc1ccc(/C=C2\SC(N3CC(C(=O)O)C3)=NC2=O)cc1` [Example 118, 1-{5-[4-(2-Isopropyl-phenoxy)-benzylidene]-4-oxo-4,5-dihydro-thiazol-2-yl}-azetidine-3-carboxylic acid] returned an EC50 of 21 nM.
For the compound `COC(=O)c1ccc(Oc2ccc(/C=C3\SC(N4CCC(C(=O)OC)CC4)=NC3=O)cc2OC)c(C(F)(F)F)c1` [Example 113, 1-{5-[3-Methoxy-4-(4-methoxycarbonyl-2-trifluoromethyl-phenoxy)-benzylidene]-4-oxo-4,5-dihydro-thiazol-2-yl}-piperidine-4-carboxylic acid methyl ester], the midpoint of the response, the EC50, lay at 14 nM.
To `CC1CN(C2=NC(=O)/C(=C/c3ccc(Oc4ccc(C#N)cc4C(F)(F)F)c(F)c3)S2)CC(C)O1` (stereo not shown) [Example 46, 4-{4-[2-(2,6-Dimethyl-morpholin-4-yl)-4-oxo-4H-thiazol-5-ylidenemethyl]-2-fluoro-phenoxy}-3-trifluoromethyl-benzonitrile] belongs 19 nM; to `N#Cc1ccc(Oc2ccc(/C=C3\SC(N4CCCC(O)C4)=NC3=O)cc2F)c(C(F)(F)F)c1` (stereo not shown) [Example 103, 4-{2-Fluoro-4-[2-(3-hydroxy-piperidin-1-yl)-4-oxo-4H-thiazol-5-ylidenemethyl]-phenoxy}-3-trifluoromethyl-benzonitrile], 47 nM.
In turn, `COc1cc(/C=C2\SC(NCCC(=O)N3CCOCC3)=NC2=O)ccc1Oc1ccc(C#N)cc1C(F)(F)F` [Example 73, 4-{2-Methoxy-4-[2-(3-morpholin-4-yl-3-oxo-propylamino)-4-oxo-4H-thiazol-5-ylidenemethyl]-phenoxy}-3-trifluoromethyl-benzonitrile] came in with an EC50 of 13 nM.
Under `COc1cc(/C=C2\SC(N3CCC(C(N)=O)CC3)=NC2=O)ccc1Oc1ccc(C#N)cc1C(F)(F)F` [Example 78, 1-{5-[4-(4-Cyano-2-trifluoromethyl-phenoxy)-3-methoxy-benzylidene]-4-oxo-4,5-dihydro-thiazol-2-yl}-piperidine-4-carboxylic acid amide] stands 14 nM.
`COc1cc(/C=C2\SC(NCCCN3CCCC3=O)=NC2=O)ccc1Oc1ccc(C#N)cc1C(F)(F)F` [Compound 22, 4-(2-Methoxy-4-{4-oxo-2-[3-(2-oxo-pyrrolidin-1-yl)-propylamino]-4H-thiazol-5-ylidenemethyl}-phenoxy)-3-trifluoromethyl-benzonitrile]: the response was half-maximal at 9 nM (EC50). This EC50 lies about 1.6-fold lower than the previous one.
